Assay results as given in US8236756B2, “Prodrugs cleavable by CD26” (Consejo Superior de Investigaciones Clentificas (CSIC), priority 2003, dated 2012).

Molecular target: T1, purified CD26 (Homo sapiens, UniProt P27487)
T1 construct: made in house
Test: Conversion of peptide prodrugs to parent compound by purified CD26 (HPLC)
Assay type: biochemical
Details: for Conversion % to parent compound by purified CD26, 1 h / Conversion % to parent compound by purified CD26, 4 h / Conversion % to parent compound by purified CD26, 24 h: Table 1
Protocol: To reveal whether CD26 recognizes such synthetic di/tripeptide derivatives of lipophilic nucleoside analogues as a substrate, 50 μM CAM-405 or CAM-431 was exposed to 5.7 mUnits of purified CD26, and the conversion of CAM-405 or CAM-431 to respectively CAM-212 or CAM-403 (Val-NAP-TSAO) was recorded in function of incubation time by HPLC analysis. […] Within the first 10 min of the reaction, at least 20% of CAM-405 had been converted to CAM-212, fifty percent of the TSAO dipeptide derivative was converted to CAM-212 within 30 min of the reaction and ˜67% of CAM-405 was hydrolyse after 60 min. Thus, the reaction rate started already to slow down after the first 10 min of drug exposure (FIG. 2). Most likely, the release of the reaction product Val-Pro dose-dependently feed-back inhibited the CD26-catalysed dipeptidyl-peptidase reaction. […] Thus, in the presence of 50 μM CAM-405, hydrolysis of 50% of CAM-405 to CAM-212 results in the appearance of 25 μM Val-Pro, that is a concentration that (feed-back) inhibits the CD26 reaction by ˜50%. These findings explain why the CD26-catalysed reaction levels-off shortly after the start of the exposure of the drug to CD26. […] Thus, a further level of modulation of the rate of prodrug release can be introduced by choosing a dipeptide moiety that competes for the active site of CD26, until the dipeptide has diffused from the tissue wherein CD26 is present. The inhibitory activity of any dipeptide can be evaluated by the above mentioned assay.
The conversion rate in function of time is given in Table 1 for NAP-TSAO-dipeptides where the dipeptide consists of: Val-Pro, Val-D-Pro, Asp-Pro, Lys-Pro, Tyr-Pro, Gly-Pro, Val-4-hydroxyPro, Gly-3,4-dihydroxyPro, but also Val-Gly, Val-Ala, Val-Leu and Val-Phe. It is clear that the conversion rate to the parent NAP-TSAO differs depending the nature of the dipeptide. Also, when the terminal amine of the dipeptide has been blocked by a lipophilic group (i.e. methyl, Z or Fmoc), the prodrug looses measurable substrate activity for CD26.
The conversion rate in function of time is given in Table 2 for tetrapeptide NAP-TSAO compounds where the tetrapeptide consists of: Val-Pro-Val-Pro [SEQ ID no:6] (CAM 467), Val-Ala-Val-Pro [SEQ ID no:7] (CAM 473) or Lys-Pro-Asp-Pro [SEQ ID no:8] (CAM 477). […] Only traces of dipeptide prodrug (CAM 405) is seen as intermediate in the conversion of the tetrapeptide CAM 473 to NAP-TSAO.
All enzyme activity assays were performed in Eppendorf tubes on a heating block at 37° C. To each tube were added 32 μl CD26 (at a final concentration of 1.5 milliUnits) or 10 μl foetal bovine serum (BS) (final concentration: 2.5% BS in PBS; preheated at 56° C. for 30 min) or 10 μl human serum (HS) (final concentration: 2.5% HS in PBS), 40 μl of appropriate concentrations of inhibitor (Diprotin A) solution in PBS (for the exact concentrations, see the legend to FIG. 5), CAM-405 (the substrate of the reaction) at […] (final concentration) and PBS to reach a total volume of 400 μl. The pH of the reaction mixture was 7.5, which is virtually identical to the physiological pH of plasma. The reaction was started by the addition of the enzyme or serum and carried out at 37° C. After 5 hr, 100 μl reaction mixture was taken from the Eppendorf tube and added to 200 μl cold methanol to precipitate the proteins. After 10 min standing on ice, the contents of the tubes were centrifuged and the supernatants analysed by HPLC on a reverse phase column (RP-8, Merck Laboratories). CAM-405 was separated from CAM-212 (the product of the reaction) by a gradient of 50 mM sodium phosphate+5 mM heptane sulfonic acid pH 3.2 (Buffer A) and acetonitrile (Buffer B) as follows: Buffer A: 98%+2% Buffer B, 2 min; linear gradient to 20% Buffer. […]

[1] = Table 2, purified CD26 1.5 mUnits, 1 h
[2] = Table 2, purified CD26 1.5 mUnits, 4 h
[3] = Table 2, purified CD26 1.5 mUnits, 24 h
[4] = Table 5, purified CD26 1.5 mUnits, 1 h
[5] = Table 5, purified CD26 1.5 mUnits, 4 h
[6] = Table 5, purified CD26 1.5 mUnits, 24 h

T1 sequence (P27487 whole entry): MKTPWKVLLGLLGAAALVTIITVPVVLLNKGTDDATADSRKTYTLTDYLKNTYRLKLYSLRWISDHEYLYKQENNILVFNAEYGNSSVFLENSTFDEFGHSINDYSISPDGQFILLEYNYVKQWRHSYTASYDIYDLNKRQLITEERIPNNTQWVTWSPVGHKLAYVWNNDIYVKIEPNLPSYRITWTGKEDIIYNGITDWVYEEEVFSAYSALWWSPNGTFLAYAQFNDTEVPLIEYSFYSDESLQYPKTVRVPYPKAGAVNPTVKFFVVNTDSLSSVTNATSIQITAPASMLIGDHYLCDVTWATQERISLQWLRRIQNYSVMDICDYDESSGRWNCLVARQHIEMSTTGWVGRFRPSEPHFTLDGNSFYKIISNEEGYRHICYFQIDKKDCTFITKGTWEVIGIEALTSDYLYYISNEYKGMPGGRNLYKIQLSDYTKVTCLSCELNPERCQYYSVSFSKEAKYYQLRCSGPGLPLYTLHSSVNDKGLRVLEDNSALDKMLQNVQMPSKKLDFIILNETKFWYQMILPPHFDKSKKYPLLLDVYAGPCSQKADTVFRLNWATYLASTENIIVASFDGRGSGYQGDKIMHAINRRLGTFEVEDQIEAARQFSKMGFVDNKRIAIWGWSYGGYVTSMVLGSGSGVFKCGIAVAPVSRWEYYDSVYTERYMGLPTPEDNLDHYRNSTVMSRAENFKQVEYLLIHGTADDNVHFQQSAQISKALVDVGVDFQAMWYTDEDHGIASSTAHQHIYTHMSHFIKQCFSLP

Compound	% conversion to parent compound by purified CD26, 4 h [2]	% conversion to parent compound by purified CD26, 24 h [3]	Conversion / substrate activity with purified CD26, in words	Conversion % to parent compound by purified CD26, 1 h (purified CD26 1.5 mUnits, 1 h)	Conversion % to parent compound by purified CD26, 4 h (purified CD26 1.5 mUnits, 4 h)	Conversion % to parent compound by purified CD26, 24 h (purified CD26 1.5 mUnits, 24 h)	also measured
Cc1cn(C2OC(CO[Si](C)(C)C(C)(C)C)C3(OS(=O)(=O)C=C3N)C2O[Si](C)(C)C(C)(C)C)c(=O)n(CCCNC(=O)C2CCCN2C(=O)C(NC(=O)C2CCCN2C(=O)C(NC(=O)OCc2ccccc2)C(C)C)C(C)C)c1=O (stereo not drawn) [CAM-466, Z-Val-Pro-Val-Pro-NAP-TSAO]	0%	0%	–	–	–	–	% conversion to parent compound by purified CD26, 1 h [1]: 0%
COc1cccc2c1C(=O)c1c(O)c3c(c(O)c1C2=O)CC(O)(C(=O)CO)CC3OC1CC(NC(=O)C2CCCN2C(=O)C(NC(=O)OCC2c3ccccc3-c3ccccc32)C(C)C)C(O)C(C)O1 (stereo not drawn) [CAM-468, Fmoc-Val-Pro-Doxorubicin]	–	–	no conversion	–	–	–	% conversion to parent compound by purified CD26, 1 h [4]: 0%; % conversion to parent compound by purified CD26, 4 h [5]: 0%; % conversion to parent compound by purified CD26, 24 h [6]: 0%
Cc1cn(C2OC(CO[Si](C)(C)C(C)(C)C)C3(OS(=O)(=O)C=C3N)C2O[Si](C)(C)C(C)(C)C)c(=O)n(CCCNC(=O)[C@@H](NC(=O)OCc2ccccc2)C(C)C)c1=O (stereo partly shown) [CAM-404, Z-Val-NAP-TSAO]	–	–	–	0%	0%	0%	–
Cc1cn(C2OC(CO[Si](C)(C)C(C)(C)C)C3(OS(=O)(=O)C=C3N)C2O[Si](C)(C)C(C)(C)C)c(=O)n(CCCNC(=O)[C@@H]2CCCN2C(=O)CN)c1=O (stereo partly drawn) [CAM-458, H-Gly-Pro-NAP-TSAO]	–	–	–	5%	20%	58%	–
Cc1cn(C2OC(CO[Si](C)(C)C(C)(C)C)C3(OS(=O)(=O)C=C3N)C2O[Si](C)(C)C(C)(C)C)c(=O)n(CCCNC(=O)C2CCCN2C(=O)C(CC(=O)O)NC(=O)C2CCCN2C(=O)C(N)CCCCN)c1=O (stereo not drawn) [CAM-477, H-Lys-Pro-Asp-Pro-NAP-TSAO]	6.0%	26%	clearly occurs in two steps	–	–	–	% conversion to parent compound by purified CD26, 1 h [1]: 2.1%; % conversion to dipeptide intermediate by purified CD26, 1 h (Table 2 footnote a, purified CD26 1.5 mUnits, 1 h): 88%; % conversion to dipeptide intermediate by purified CD26, 4 h (Table 2 footnote a, purified CD26 1.5 mUnits, 4 h): 86%; % conversion to dipeptide intermediate by purified CD26, 24 h (Table 2 footnote a, purified CD26 1.5 mUnits, 24 h): 74%
H-Gly-3.4Hypro-NAP-TSAO [CAM-465]	–	–	–	–	0%	0%	–
Cc1cn(C2OC(CO[Si](C)(C)C(C)(C)C)C3(OS(=O)(=O)C=C3N)C2O[Si](C)(C)C(C)(C)C)c(=O)n(CCCNC(=O)[C@@H]2CCCN2C(=O)[C@@H](N)CCCCN)c1=O (stereo partly drawn) [CAM-437, H-Lys-Pro-NAP-TSAO]	85%	99%	completely removed	–	85%	99%	–
CC(C)[C@H](N)C(=O)N1CCC[C@H]1C(=O)Nc1ccc2ncccc2c1 [CAM-475, H-Val-Pro-6-Aminoquinoline]	–	–	complete conversion within 1 hr	–	–	–	% conversion to parent compound by purified CD26, 1 h [4]: 99%; % conversion to parent compound by purified CD26, 4 h [5]: 100%; % conversion to parent compound by purified CD26, 24 h [6]: 100%
CNC(C(=O)N1CCCC1C(=O)NC(C(=O)NCCCn1c(=O)c(C)cn(C2OC(CO[Si](C)(C)C(C)(C)C)C3(OS(=O)(=O)C=C3N)C2O[Si](C)(C)C(C)(C)C)c1=O)C(C)C)C(C)C (stereo not drawn) [CAM-407, Me-NH-Val-Pro-Val-NHP-TSAO]	–	–	completely lacked substrate activity	0%	0%	0%	–
Cc1cn(C2OC(CO[Si](C)(C)C(C)(C)C)C3(OS(=O)(=O)C=C3N)C2O[Si](C)(C)C(C)(C)C)c(=O)n(CCCNC(=O)[C@@H]2CCCN2C(=O)[C@@H](N)Cc2ccc(O)cc2)c1=O (stereo partly drawn) [CAM-456, H-Tyr-Pro-NAP-TSAO]	–	–	–	43%	66%	79%	–
Cc1cn(C2OC(CO[Si](C)(C)C(C)(C)C)C3(OS(=O)(=O)C=C3N)C2O[Si](C)(C)C(C)(C)C)c(=O)n(CCCNC(=O)[C@@H]2CCCN2C(=O)[C@@H](N)CC(=O)O)c1=O (stereo partly drawn) [CAM-435, H-Asp-Pro-NAP-TSAO]	7.9%	30%	–	–	7.9%	30%	–
Cc1cn(C2OC(CO[Si](C)(C)C(C)(C)C)C3(OS(=O)(=O)C=C3N)C2O[Si](C)(C)C(C)(C)C)c(=O)n(CCCNC(=O)[C@@H]2CC(O)CN2C(=O)[C@@H](N)C(C)C)c1=O (stereo partly shown) [CAM-163, H-Val-4HyPro-NAP-TSAO]	–	–	–	4.1%	18%	53%	–
Cc1cn(C2OC(CO[Si](C)(C)C(C)(C)C)C3(OS(=O)(=O)C=C3N)C2O[Si](C)(C)C(C)(C)C)c(=O)n(CCCNC(=O)C2CCCN2C(=O)C(NC(=O)C(C)NC(=O)C(N)C(C)C)C(C)C)c1=O (stereo not drawn) [CAM-473, H-Val-Ala-Val-Pro-NAP-TSAO]	54%	70%	occurs faster than with the Val-Ala-NAP-TSAO	–	–	–	% conversion to parent compound by purified CD26, 1 h [1]: 12%
COc1cccc2c1C(=O)c1c(O)c3c(c(O)c1C2=O)CC(O)(C(=O)CO)CC3OC1CC(NC(=O)C2CCCN2C(=O)C(N)C(C)C)C(O)C(C)O1 (stereo not drawn) [CAM-469, H-Val-Pro-Doxorubicin]	–	–	very efficiently converted	–	–	–	% conversion to parent compound by purified CD26, 1 h [4]: 78%; % conversion to parent compound by purified CD26, 4 h [5]: 95%; % conversion to parent compound by purified CD26, 24 h [6]: 97%
H-Val-Pro-Val-NHP-TSAO [CAM-411]	–	–	–	33%	60%	–	–
NH2-Val-HyPro(Bzl)-NAP-TSAO [CAM-462]	–	–	–	–	0%	0%	–
Cc1cn(C2OC(CO[Si](C)(C)C(C)(C)C)C3(OS(=O)(=O)C=C3N)C2O[Si](C)(C)C(C)(C)C)c(=O)n(CCCNC(=O)C2CCCN2C(=O)C(NC(=O)C2CCCN2C(=O)C(N)C(C)C)C(C)C)c1=O (stereo not drawn) [CAM-467, H-Val-Pro-Val-Pro-NAP-TSAO]	86%	88%	quickly converted	–	–	–	% conversion to parent compound by purified CD26, 1 h [1]: 43%
